Source: US20050014765A1, “Aryl-heteroaromatic products, compositions comprising them and use” (Aventis Pharma S.A., priority 2003, published 2005)
Structures can show the parent of a compound that is named as a salt.

What was measured:
[1] = biological target: T1, Tubulin purified from pig brains (Sus scrofa, UniProt P02550+P02554); assay: Assessment of the inhibition of tubulin polymerization (turbidimetry at 350 nm); format: biochemical; conditions: concentration which inhibits the rate of polymerization by 50%; tubulin 1 mg/ml, 37° C.; read-out: Inhibition of tubulin polymerization IC 50
T1 construct: Tubulin is purified from pig brains according to published methods; from tissue; host or cells: pig brain
T1 sequence (P02550 whole entry): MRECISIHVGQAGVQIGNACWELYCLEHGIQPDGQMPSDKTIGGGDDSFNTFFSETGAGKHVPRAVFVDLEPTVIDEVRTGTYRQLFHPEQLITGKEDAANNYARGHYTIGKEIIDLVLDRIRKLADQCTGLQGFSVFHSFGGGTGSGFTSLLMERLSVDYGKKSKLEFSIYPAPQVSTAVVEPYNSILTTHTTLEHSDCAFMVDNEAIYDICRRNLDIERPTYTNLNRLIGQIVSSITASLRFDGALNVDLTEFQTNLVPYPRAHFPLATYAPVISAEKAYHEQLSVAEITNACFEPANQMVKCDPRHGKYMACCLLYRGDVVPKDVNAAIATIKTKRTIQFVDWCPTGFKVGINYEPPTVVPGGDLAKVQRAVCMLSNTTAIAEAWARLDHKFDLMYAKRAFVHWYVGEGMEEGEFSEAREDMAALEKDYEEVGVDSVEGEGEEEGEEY
T1 sequence (P02554 whole entry): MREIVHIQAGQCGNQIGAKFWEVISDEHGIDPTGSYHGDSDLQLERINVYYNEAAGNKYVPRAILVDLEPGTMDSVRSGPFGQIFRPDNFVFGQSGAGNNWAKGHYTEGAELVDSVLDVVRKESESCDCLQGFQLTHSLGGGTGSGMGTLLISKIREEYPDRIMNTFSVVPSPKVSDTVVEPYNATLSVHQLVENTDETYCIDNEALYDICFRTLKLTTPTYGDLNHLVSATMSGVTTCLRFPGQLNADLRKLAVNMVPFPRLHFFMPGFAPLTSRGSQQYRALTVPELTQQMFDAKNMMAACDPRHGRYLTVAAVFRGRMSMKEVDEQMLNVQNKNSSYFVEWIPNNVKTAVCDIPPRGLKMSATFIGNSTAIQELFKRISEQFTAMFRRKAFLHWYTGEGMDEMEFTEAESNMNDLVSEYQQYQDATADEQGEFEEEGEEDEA
Procedure: Assessment of the Inhibition of Tubulin Polymerization
Tubulin is purified from pig brains according to published methods (Shelanski et al., 1973, Proc. Natl. Acad. Sci. USA, 70, 765-768. Weingarten et al., 1975, Proc. Natl. Acad. Sci. USA, 72, 1858-1862). Briefly, the brains are ground and centrifuged in an extraction buffer. The tubulin, present in the extract supernatant is subjected to two successive cycles of polymerization at 37° C. and depolymerization at 4° C., before being separated from the MAPs (Microtubule Associated Proteins) by chromatography on a phosphocellulose P11 column (Whatman). The tubulin thus isolated is more than 95% pure. It is stored in a buffer known as RB/2 30% glycerol, the composition of which is 50 mM MES-NaOH [2-(N-morpholino)ethanesulfonic acid], pH 6.8; 0.25 mM MgCl2; 0.5 mM EGTA; 30% (v/v) glycerol, 0.2 mM GTP (guanosine 5′-triphosphate).
The polymerization of the tubulin into microtubules is monitored by turbidimetry as follows: the tubulin is adjusted to a concentration of 10 μm (1 mg/ml) in the RB/2 30% glycerol buffer, to which are added 1 mM GTP and 6 mM MgCl2. The polymerization is initiated by increasing the temperature from 6° C. to 37° C. in a cuvette with a 1 cm optical pathlength, placed in a UVIKON 931 spectrophotometer (Kontron) equipped with a thermostatically-regulated cuvette holder. The increase in turbidity of the solution is monitored at 350 nm.
The products are dissolved at 10 mM in DMSO and added at variable concentrations (0.5 to 10 μm) to the tubulin solution before polymerization. The IC50 is defined as the concentration of the product which inhibits the rate of polymerization by 50%.

HCT116 cells = assay: Inhibition of proliferation of the HCT116 human colon tumor line ([14C]-thymidine incorporation); format: cell-based; conditions: HCT-116, 48 hours incubation at 37° C., read-out: Inhibition of HCT116 proliferation IC 50
Procedure: Test for Determining the Inhibition of Proliferation of the HCT116 Human Colon Tumor Line
The proliferation of HCT116 cells is evaluated by mesuring the incorporation of [^14C]-thymidine in the following way. The HCT166 cells (from the ATCC) are cultured in a DMEM medium (Gibco) which contains 10% of fetal calf serum and antibiotics (1% penicillin, 1% streptomycin). To perform the proliferation test, the cells are seeded into 96-well cytostar microplates (Amersham) at the rate of 5000 cells per well. The [^14C]-thymidine (0.1 μCi/well) and the products to be evaluated are subsequently added. Variable concentrations of products up to 10 μM are used; the DMSO (solvent used to dissolve the products) should not exceed 0.5% in the medium. 48 hours after incubation at 37° C., the radioactivity incorporated into the cells is measured by counting the plate in a Tri-Lux counter (Wallac). The IC50 is defined as the concentration of product which reduces the radioactivity by 50% compared with an untreated control. A product with an IC50 of less than 10 μm is regarded as cytotoxic.

Compound	IC50 [1]	melting point	IC50 (HCT116 cells)
COc1cc(OC)cc(N2CCN(C(=O)c3ccn(C(C)=O)c3-c3ccccc3)CC2)c1 [Example 63, [4-(3,5-Dimethoxyphenyl)piperazin-1-yl](1-acetyl-2-phenyl-1H-pyrrol-3-yl)methanone]	4000 nM	150 °C	–
N#Cc1cccc(N2CCN(C(=O)c3cc[nH]c3-c3ccccc3)CC2)c1 [Example 74, 3-[4-(2-Phenyl-1H-pyrrol-3-ylcarbonyl)piperazin-1-yl]benzonitrile]	3050 nM	80 °C	52 nM
O=C(c1[nH]c(O)nc1-c1ccccc1)N1CCN(c2cccc(CO)c2)CC1 [Example 57, [4-(3-Hydroxymethylphenyl)piperazin-1-yl](2-hydroxy-4-phenyl-1H-imidazol-5-yl)methanone]	795 nM	173 °C	17 nM
N#Cc1cccc(N2CCN(C(=O)c3[nH]c(O)nc3-c3ccccc3)CC2)c1 [Example 75, 3-[4-(2-Hydroxy-4-phenyl-1H-imidazol-5-ylcarbonyl)piperazin-1-yl]-benzonitrile]	1010 nM	198 °C	11.5 nM
Nc1nc(-c2ccccc2)c(C(=O)N2CCN(c3cccc(CO)c3)CC2)s1 [Example 88, [4-(3-Hydroxymethylphenyl)piperazin-1-yl](2-amino-4-phenylthiazol-5-yl)-methanone]	715 nM	176 °C	–
COc1cc(OC)cc(N2CCN(C(=O)c3[nH]c(O)nc3-c3ccccc3)CC2)c1 [Example 28, [4-(3,5-Dimethoxyphenyl)piperazin-1-yl](2-hydroxy-5-phenyl-1H-imidazol-4-yl)methanone]	1100 nM	130 °C	1.5 nM
CS(=O)(=O)c1nc(-c2ccccc2)c(C(=O)N2CCN(c3cccc(C#N)c3)CC2)[nH]1 [Example 70, 3-[4-(2-Methylsulfonyl-4-phenyl-1H-imidazol-4-ylcarbonyl)piperazin-1-yl]benzonitrile]	3750 nM	198 °C	–
N#Cc1cccc(N2CCN(C(=O)c3[nH]c(S)nc3-c3ccccc3)CC2)c1 [Example 52, 3-[4-(2-Mercapto-4-phenyl-1H-imidazol-5-yl-carbonyl)piperazin-1-yl]-benzonitrile]	400 nM	247 °C	100 nM
N#Cc1cccc(N2CCN(C(=O)c3ccn(CCO)c3-c3ccccc3)CC2)c1 [Example 81, 3-[4-(1-Hydroxyethyl-2-phenyl-1H-pyrrol-3-ylcarbonyl)piperazin-1-yl]-benzonitrile]	2400 nM	158 °C	307 nM
COc1cc(OC)cc(N2CCN(C(=O)c3[nH]cnc3-c3ccccc3)CC2)c1 [Example 9, [4-(3,5-Dimethoxyphenyl)piperazin-1-yl](4-phenyl-1H-imidazol-5-yl)-methanone]	600 nM	196 °C	1.3 nM
NC(=O)c1cccc(N2CCN(C(=O)c3nc(O)[nH]c3-c3ccccc3)CC2)c1 [Example 51, 3-[4-(2-Hydroxy-4-phenyl-1H-imidazol-5-yl-carbonyl)piperazin-1-yl]benzamide]	500 nM	202 °C	1360 nM
COc1cc(OC)cc(N2CCN(C(=O)c3ccn(CCO)c3-c3ccccc3)CC2)c1 [Example 53, [4-(3,5-Dimethoxyphenyl)piperazin-1-yl][1-(2-hydroxyethyl)-2-phenyl-1H-pyrrol-3-yl]methanone]	810 nM	157 °C	46 nM
COc1cc(OC)cc(N2CCN(C(=O)c3ccn(C)c3-c3ccccc3)CC2)c1 [Example 27, [4-(3,5-Dimethoxyphenyl)piperazin-1-yl](1-methyl-2-phenyl-1H-pyrrol-3-yl)-methanone]	1900 nM	130 °C	15.1 nM
O=C(c1c[nH]cc1-c1ccccc1)N1CCN(c2cccc(Cl)c2)CC1 [Example 15, [4-(3-Chlorophenyl)piperazin-1-yl](4-phenyl-1H-pyrrol-3-yl)methanone]	2900 nM	–	731 nM
CSc1nc(-c2ccccc2)c(C(=O)N2CCN(c3cccc(CO)c3)CC2)[nH]1 [Example 79, [4-(3-Hydroxymethylphenyl)piperazin-1-yl](2-methylsulfanyl-4-phenyl-1H-imidazol-5-yl)methanone]	493 nM	–	11.7 nM
NC(=O)c1cccc(N2CCN(C(=O)c3sc(N)nc3-c3ccccc3)CC2)c1 [Example 85, 3-[4-(2-Amino-4-phenyl-thiazol-5-ylcarbonyl)piperazin-1-yl]benzamide]	685 nM	236 °C	–
N#Cc1cccc(N2CCN(C(=O)c3c[nH]cc3-c3ccccc3)CC2)c1 [Example 61, 3-[4-(4-Phenyl-1H-pyrrol-3-ylcarbonyl)piperazin-1-yl]benzonitrile]	2320 nM	–	40 nM
Cc1nc(-c2ccccc2)c(C(=O)N2CCN(c3cccc(CO)c3)CC2)[nH]1 [Example 76, [4-(3-Hydroxymethylphenyl)piperazin-1-yl](2-methyl-4-phenyl-1H-imidazol-5-yl)methanone]	970 nM	–	101 nM
COc1cc(OC)cc(N2CCN(C(=O)c3cn(C)cc3-c3ccccc3)CC2)c1 [Example 18, [4-(3,5-Dimethoxyphenyl)piperazin-1-yl](1-methyl-4-phenyl-1H-pyrrol-3-yl)methanone hydrochloride]	970 nM	–	3.8 nM
Cc1nc(-c2ccccc2)c(C(=O)N2CCN(c3cccc(C#N)c3)CC2)[nH]1 [Example 60, 3-[4-(2-Methyl-5-phenyl-1H-imidazol-4-ylcarbonyl)piperazin-1-yl]benzonitrile]	990 nM	–	11 nM
COc1cc(OC)cc(N2CCN(C(=O)c3c(-c4ccccc4)ccn3C)CC2)c1 [Example 40, [4-(3,5-Dimethoxyphenyl)piperazin-1-yl](1-methyl-3-phenyl-1H-pyrrol-2-yl)-methanone hydrochloride]	11200 nM	–	275 nM
NC(=O)c1cccc(N2CCN(C(=O)c3cc[nH]c3-c3ccccc3)CC2)c1 [Example 25, [4-(3-Carboxamidophenyl)piperazin-1-yl](2-phenyl-1-H-pyrrol-3-yl)methanone]	9600 nM	–	297 nM
O=C(c1nc(S)[nH]c1-c1ccccc1)N1CCN(c2cccc(Cl)c2)CC1 [Example 19, [4-(3-Chlorophenyl)piperazin-1-yl](2-mercapto-5-phenyl-1H-imidazol-4-yl)-methanone]	750 nM	> 260 °C	28.7 nM
NC(=O)c1cccc(N2CCN(C(=O)c3c[nH]cc3-c3ccccc3)CC2)c1 [Example 58, 3-[4-(4-Phenyl-1H-pyrrol-3-ylcarbonyl)piperazin-1-yl]benzamide]	4450 nM	–	334 nM
COc1cc(OC)cc(N2CCN(C(=O)c3[nH]c(C(F)(F)F)nc3-c3ccccc3)CC2)c1 [Example 62, [4-(3,5-Dimethoxyphenyl)piperazin-1-yl](2-trifluoromethyl-4-phenyl-1H-imidazol-5-yl)methanone]	570 nM	–	8 nM
N#Cc1cccc(N2CCN(C(=O)c3sc(N)nc3-c3ccccc3)CC2)c1 [Example 82, 3-[4-(2-Amino-4-phenylthiazol-5-ylcarbonyl)piperazin-1-yl]benzonitrile]	294 nM	246 °C	–
COc1cccc(N2CCN(C(=O)c3[nH]cnc3-c3ccccc3)CC2)c1 [Example 29, [4-(3-Methoxyphenyl)piperazin-1-yl](4-phenyl-1H-imidazol-5-yl)methanone]	400 nM	–	3 nM
O=C(c1[nH]c(S)nc1-c1ccccc1)N1CCN(c2cccc(CO)c2)CC1 [Example 78, [4-(3-Hydroxymethylphenyl)piperazin-1-yl](2-mercapto-4-phenyl-1H-imidazol-5-yl)methanone]	725 nM	–	244 nM
